Test results: patent publication US5506271A, “Method of treating papilloma virus infection using hypericin” (New York University, priority 1993, dated 1996)
“Also recorded” adds a separate entry of the source. Read-outs that look alike come from different tables or passages of the source.

Key:
Friend virus [1] = experiment: Inactivation of Friend virus by hypericin, Rose Bengal and combinations, splenomegaly (FIG. 9); type: in vivo, BALB/C mice; conditions: agents at 2-5 mg/ml, 1 hour on ice, virus 1:2000, spleen weight day 14
Experimental: FIG. 9 is a graph showing the inactivation of Friend virus by Hypericin, Rose Bengal and combinations thereof. Friend virus was diluted 1:2000 in PBS and incubated with no hypericin or concentrations of hypericin of 1, 2, or 5 mg/ml alone, or in combination with Rose Bengal (RB) at concentrations of 2 and 5 mg/ml for 1 hour on ice. The treated virus preparations were injected into BALB/C mice. On day 14, 1 mouse from each group was sacrificed and analyzed for spleen weight.
FIGS. 9 and 10 show the results of a study in which Friend virus was treated with hypericin, Rose Bengal or combinations of hypericin and Rose Bengal at different concentrations and ratios. The virus treated in this manner was injected into BALB/C mice. […] Lack of, or suppression of, splenomegaly serves as an index of the degrees of virus inactivation. […] This proves that virus inactivation by both agents, alone and in combination, was effective.

HIV [2] = experiment: HIV infectivity monitored by HIV-induced destruction of CEM ×174 cultures infected with dilutions of hypericin-treated virus; type: cell-based; conditions: for log reduction at 10 µg/mL: hypericin 10 μg/ml
Experimental: Hypericin can effectively inactivate retroviral particles rendering them non infectious.
In these experiments infectivity was monitored by HIVinduced destruction
of CEM ×174 after these cultures were infected with increasing
dilutions of hypericintreated virus. For Experiment 2, virus was incubate
(§1) overnight with hypericin at 4° C.. RT: reverse transcriptase

[3] = test system: Friend leukemia virus (FLV); experiment: Inactivation of Friend leukemia virus by extracorporeal hypericin treatment, splenomegaly in mice; type: in vivo, BALB/c mice
Experimental: FIG. 6 is a graph showing the inactivation of Friend leukemia virus (FLV) extracorporeal treatment with hypericin. Virus infectivity is measured as splenomegaly. Uninfected mice generally have spleen weights in the range of 0.08 to 0.2 grams.
Synthetic hypericin prepared from emodin was solubilized in 0.5% aqueous benzyl alcohol and administered to a concentrated stock of Friend virus estimated to contain greater than 10^4 virus focus forming units at final hypericin concentrations of 1 μg/ml and 5 μg/ml. The mixture was incubated on ice for one hour. A control preparation was incubated in parallel in the absence of the compound. Additional experimental groups were exposed to light from a 200 watt visible light halogen source in the presence of equivalent hypericin concentrations for 1×30 seconds and 2×30 seconds respectively.
The treated virus was diluted in phosphate buffered saline (PBS) to final dilutions of 1:500 and of 1:2000. The diluted treated and control virus preparations were injected intraperitoneally into BALB/c mice (3 mice per group). A single mouse from each group was sacrificed on day 11 for assessment of spleen size in order to determine the degree of FLV inactivation by hypericin.

Friend virus [4] = experiment: Protective effect of virus preparations inactivated with hypericin, Rose Bengal or combinations against live Friend virus challenge (FIG. 10); type: in vivo, BALB/C mice; conditions: challenge day 21, spleens weighed after 15 days
From the text: FIG. 10 is a graph showing the protective effect of the inactivated virus preparations described in FIG. 9. On day 21 after administration of the treated virus preparation, all animals were challenged with live Friend virus. Also included were control groups of mice injected with live Friend virus, and mice injected with PBS only. After 15 days, all mice were sacrificed and their spleens weighed as a measure of protection.
In this experiment, inhibition of splenomegaly served as the measure of protection resulting from immunogenicity of the virus preparations.

[5] = test system: Radiation leukemia virus (RadLV); experiment: Guanidinium hydrochloride extraction of RNA from hypericin-treated virions; design: species or system murine; conditions: virions treated with hypericin prior to GuHCl disruption; FIG. 3
From the text: The present inventors have further discovered that hypericin-treated retroviral particles become more resistant to dissociation by harsh denaturing reagents such as guanidinium hydrochloride (GuHCl). These denaturing agents effectively disrupt hydrogen bonding, thereby unfolding tertiary and quaternary structures of proteins and causing dissociation of bonded proteins and the collapse of biological structures.

HIV [6] = experiment: Effect of light on hypericin reduction of HIV infectivity titer for H9 target cells, limiting dilution assay; type: cell-based; conditions: ambient light; FIG. 5
From the text: FIG. 5 is a graph showing the effect of ambient light treatment on hypericin's ability to reduce the infectivity titer of HIV for H9 target cells, measured in a limiting dilution assay.

[7] = test system: HIV reverse transcriptase activity; experiment: Reverse transcriptase activity of hypericin-treated HIV; type: biochemical; conditions: Expt 1
Experimental: Hypericin Reduces Infectivity and Reverse Transcriptase
Activity of HIV Infecting CEM × 14 Cells
as §1

retroviral particles = experiment: Detergent-mediated (Triton X-100) release of reverse transcriptase from hypericin-treated viral particles; type: biochemical
Experimental: (§2) Thus it is much more difficult to measure reverse transcriptase from virus treated with hypericin prior to exposure to detergent than with virus first disrupted with detergent and then incubated with hypericin.
The effects on virion-encapsulated enzyme are presumed to be due to the failure of the capsids, within which the […] is sequestered, to be disrupted after hypericin treatment.

[8] = Solubility of hypericin ion pair and salt forms in organic solvents; type: physicochemical
From the text: As indicated above, hypericin has hydroxy groups at R^1 and R^2 in its free acid form. Upon reaction with a base, the free acid form of hypericin ionizes at R^1 and R^2. Under alkaline conditions below about pH 11.5, only one of these hydroxy groups ionize to form a salt with the base. At more alkaline conditions, both hydroxy groups ionize to form a salt with two basic cations. The salt with two basic cations has substantially different physical properties as that with one cation. […] To differentiate these two forms of hypericin, the former, which behaves as an organic compound, will be referred to herein as an ion pair and the latter as a salt.

[9] = test system: purified reverse transcriptase enzyme; experiment: Enzymatic activity of purified reverse transcriptase enzyme; type: biochemical; conditions: assay conditions used, FIG. 2
Experimental: as §2

murine RadLV particles = experiment: Inactivation of RadLV particles by hypericin with Rose Bengal (particle-derived reverse transcriptase); type: biochemical; conditions: Rose Bengal 1-2 μg/ml, hypericin 0.001-1 μg/ml; FIG. 4
Experimental: Assays for virus particle-derived reverse transcriptase were performed according to Stephenson, J. R. et al., Virology 48:749-756 (1972)).
Hypericin is a photodynamic agent which, in the presence of light, produces excited oxygen species such as singlet oxygen and superoxide radicals. These excited oxygen species play a role in the antiviral and antiretroviral activity of hypericin and hypericin analogs. While this property of producing excited oxygen species may account for inactivation of the virus or retrovirus particle, it is not sufficient to explain the enhanced immunogenicity of the inactivated virus. Support for this notion comes from experimental findings by the present inventors using another photodynamic agent, Rose Bengal. Rose Bengal also produces excited oxygen species, is also capable of inactivating retroviral particles and interacts synergistically with hypericin in inactivating the virus.

Cc1cc(O)c2c(=O)c3c(O)cc(O)c4c5c(O)cc(O)c6c(=O)c7c(O)cc(C)c8c1c2c(c34)c(c78)c65 [hypericin]
suppression of virus-induced splenomegaly (virus inactivation) (Friend virus [1]): effectively suppressed virus-induced splenomegaly | log reduction at 10 µg/mL (HIV [2]; Human immunodeficiency virus 1, CEM174, Expt 1, read-out: INHIBITION (Log1 0 Reduction) INFECTIVITY): 4 | log reduction at 25 µg/mL (HIV [2]; Human immunodeficiency virus 1, CEM174, Expt 1, hypericin 25 μg/ml, read-out: INHIBITION (Log1 0 Reduction) INFECTIVITY): 4.75 | log reduction at 1 µg/mL (HIV [2]; Human immunodeficiency virus 1, CEM174, Expt 2, hypericin 1 μg/ml, virus incubated overnight at 4° C., read-out: INHIBITION (Log1 0 Reduction) INFECTIVITY): 0 | log reduction at 2 µg/mL (HIV [2]; Human immunodeficiency virus 1, CEM174, Expt 2, hypericin 2 μg/ml, virus incubated overnight at 4° C., read-out: INHIBITION (Log1 0 Reduction) INFECTIVITY): 3.75 | log reduction at 5 µg/mL (HIV [2]; Human immunodeficiency virus 1, CEM174, Expt 2, hypericin 5 μg/ml, virus incubated overnight at 4° C., read-out: INHIBITION (Log1 0 Reduction) INFECTIVITY): 4.25 | log reduction at 10 µg/mL (HIV [2]; Human immunodeficiency virus 1, CEM174, Expt 2, virus incubated overnight at 4° C., read-out: INHIBITION (Log1 0 Reduction) INFECTIVITY): 4.75 | HIV infectivity titers diminished (HIV [2]; after treatment with hypericin (summary of Table 3)): 3-4 logs | effect of increased light exposure on FV inactivation by hypericin ([3]; 200 watt visible light halogen source, 1×30 and 2×30 seconds): did not enhance the ability of hypericin to inactivate FV | virus-induced splenomegaly after injection of hypericin-treated FLV ([3]; hypericin 1 and 5 μg/ml, 1 hour on ice, i.p. BALB/c mice, spleen size day 11, FIG. 6): significantly reduced the ability of the virus to induce splenomegaly; also recorded: absence or presence of minimal splenomegaly | protection from live virus challenge (immunogenicity of inactivated virus preparation) (Friend virus [4]): greatest degree of protection | extraction of viral RNA by guanidinium hydrochloride [5]: dramatic inhibition of the ability of guanidinium hydrochloride to extract RNA; also recorded: yields of extractable RNA were markedly reduced | effect of light on antiviral activity of hypericin (HIV [6]): Light can enhance the antiviral activity | INHIBITION (Log1 0 Reduction) RT ([7]; hypericin 10 μg/ml): 0.60 Log1 0 Reduction | INHIBITION (Log1 0 Reduction) RT ([7]; hypericin 25 μg/ml): 1.72 Log1 0 Reduction | detergent-mediated release of reverse transcriptase activity from viral particles (retroviral particles; 0.5-1% Triton X-100, FIG. 1): prevents detergent-mediated (0.5-1% Triton X-100) release of reverse transcriptase activity | resistance of virion to disruption with non-ionic detergents (retroviral particles; 1% aqueous Triton X-100): more resistant to disruption | solubility in organic solvents ([8]; above pH 11.5 (salt, two cations)): substantially insoluble in organic solvents | solubility in organic solvents ([8]; below pH 11.5 (ion pair, one cation)): soluble in organic solvents | effect on reverse transcriptase enzymatic activity [9]: no effect on reverse transcriptase enzymatic activity; also recorded: does not directly affect enzymatic activity of purified reverse transcriptase enzyme

O=C1OC2(c3cc(I)c(O)c(I)c3Oc3c2cc(I)c(O)c3I)c2c(Cl)c(Cl)c(Cl)c(Cl)c21 [Rose Bengal]
suppression of virus-induced splenomegaly (virus inactivation) (Friend virus [1]): effectively suppressed virus-induced splenomegaly | protection from live virus challenge (immunogenicity of inactivated virus preparation) (Friend virus [4]): does not cause marked enhancement of immunogenicity | protection from live virus challenge (immunogenicity of inactivated virus preparation) (Friend virus [4]; listed as Rose-Bengal): lower levels of protection | effect of Rose Bengal on hypericin inactivation of retroviral particles (murine RadLV particles): enhances the ability of hypericin; also recorded: enhanced the ability of hypericin to inactivate retroviral particles
